Test results from ChEMBL document CHEMBL5661979, “Pharmacological inhibition of BMK1 suppresses tumor growth through promyelocytic leukemia protein” (Cancer Cell, 2010).

Experiments:
[1] = target: T1, Serine/threonine-protein kinase tousled-like 2 (Homo sapiens, UniProt Q86UE8); assay: Inhibition of TLK2 in human HeLa cells lysate at 50 uM pre incubated for 15 mins followed by ADP acyl phosphate probe addition and measured after 10 mins by LC-MS/MS analysis relative to control; format: subcellular; conditions: time 25.0 min
SRSF protein kinase 1 = SRSF protein kinase 1 (Homo sapiens, UniProt Q96SB4); assay: Inhibition of SRPK1 in human HeLa cells lysate at 50 uM pre incubated for 15 mins followed by ATP acyl phosphate probe addition and measured after 10 mins by LC-MS/MS analysis relative to control; format: subcellular; conditions: time 25.0 min
[2] = target: T2, EKC/KEOPS complex subunit TP53RK (Homo sapiens) (UniProt Q96S44); assay: Inhibition of PRPK in human HeLa cells lysate at 2 uM pre incubated for 15 mins followed by ADP acyl phosphate probe addition and measured after 10 mins by LC-MS/MS analysis relative to control; format: subcellular; conditions: time 25.0 min
T2 sequence (whole entry): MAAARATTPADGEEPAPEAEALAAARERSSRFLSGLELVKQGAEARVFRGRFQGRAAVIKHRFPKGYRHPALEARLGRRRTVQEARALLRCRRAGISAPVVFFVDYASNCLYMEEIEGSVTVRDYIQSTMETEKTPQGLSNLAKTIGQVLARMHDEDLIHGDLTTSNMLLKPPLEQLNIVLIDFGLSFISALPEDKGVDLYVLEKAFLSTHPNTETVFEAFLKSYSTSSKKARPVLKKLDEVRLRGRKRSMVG

[3] = Plasma concentration in C57Bl/6 mouse at 50 mg/kg, ip administered for 4 day and measured 8 hr post last dose by LC-MS/MS analysis; format: ADME, organism-based
[4] = target: T1, Serine/threonine-protein kinase tousled-like 2; assay: Inhibition of TLK2 in human HeLa cells lysate at 10 uM pre incubated for 15 mins followed by ADP acyl phosphate probe addition and measured after 10 mins by LC-MS/MS analysis relative to control; format: subcellular; conditions: time 25.0 min
[5] = target: Ribosomal protein S6 kinase alpha-1 (Homo sapiens, UniProt Q15418); assay: Inhibition of RSK1 domain 2 K1 site in human HeLa cells lysate at 50 uM pre incubated for 15 mins followed by ADP acyl phosphate probe addition and measured after 10 mins by LC-MS/MS analysis relative to control; format: subcellular; conditions: time 25.0 min
[6] = target: T3, Interleukin-1 receptor-associated kinase 4 (Homo sapiens) (UniProt Q9NWZ3); assay: Inhibition of IRAK4 in human HeLa cells lysate at 2 uM pre incubated for 15 mins followed by ADP acyl phosphate probe addition and measured after 10 mins by LC-MS/MS analysis relative to control; format: subcellular; conditions: time 25.0 min
T3 sequence (whole entry): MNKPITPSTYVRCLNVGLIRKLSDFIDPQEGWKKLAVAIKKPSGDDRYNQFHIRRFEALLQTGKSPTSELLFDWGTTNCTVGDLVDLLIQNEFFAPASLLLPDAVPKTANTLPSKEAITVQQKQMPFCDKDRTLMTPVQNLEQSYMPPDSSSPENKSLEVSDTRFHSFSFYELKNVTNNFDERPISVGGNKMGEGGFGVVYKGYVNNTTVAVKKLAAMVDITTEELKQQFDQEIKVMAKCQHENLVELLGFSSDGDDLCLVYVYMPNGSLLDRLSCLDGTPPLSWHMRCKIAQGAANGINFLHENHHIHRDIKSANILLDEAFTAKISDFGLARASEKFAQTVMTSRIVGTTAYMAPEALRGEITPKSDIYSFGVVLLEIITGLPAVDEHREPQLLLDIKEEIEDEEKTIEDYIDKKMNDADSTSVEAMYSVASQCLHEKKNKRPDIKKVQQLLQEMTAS

[7] = target: EKC/KEOPS complex subunit TP53RK (Homo sapiens, UniProt Q96S44); assay: Inhibition of PRPK in human HeLa cells lysate pre incubated for 15 mins followed by ADP acyl phosphate probe addition and measured after 10 mins by LC-MS/MS analysis; format: subcellular
[8] = target: Serine/threonine-protein kinase Nek8 (Homo sapiens) (UniProt Q86SG6); assay: Inhibition of NEK8 in human HeLa cells lysate at 10 uM pre incubated for 15 mins followed by ADP acyl phosphate probe addition and measured after 10 mins by LC-MS/MS analysis relative to control; format: subcellular; conditions: time 25.0 min
[9] = target: T4, Phosphatidylinositol 5-phosphate 4-kinase type-2 gamma (Homo sapiens) (UniProt Q8TBX8); assay: Inhibition of PIP5K2C LIP1 site in human HeLa cells lysate at 50 uM pre incubated for 15 mins followed by ATP acyl phosphate probe addition and measured after 10 mins by LC-MS/MS analysis relative to control; format: subcellular; conditions: time 25.0 min
T4 sequence (whole entry): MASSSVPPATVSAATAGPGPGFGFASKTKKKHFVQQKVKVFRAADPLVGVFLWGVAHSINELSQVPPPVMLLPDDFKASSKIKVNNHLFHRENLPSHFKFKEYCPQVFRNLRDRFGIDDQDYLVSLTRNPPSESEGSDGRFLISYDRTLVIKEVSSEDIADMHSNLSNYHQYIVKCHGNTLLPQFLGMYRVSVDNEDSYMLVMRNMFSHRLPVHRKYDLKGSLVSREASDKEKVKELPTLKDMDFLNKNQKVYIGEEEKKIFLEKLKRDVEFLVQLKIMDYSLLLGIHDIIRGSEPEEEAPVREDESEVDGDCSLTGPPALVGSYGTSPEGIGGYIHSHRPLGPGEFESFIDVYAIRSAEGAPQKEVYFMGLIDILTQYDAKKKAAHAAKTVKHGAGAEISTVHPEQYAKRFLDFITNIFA

[10] = Inhibition of MST4/YSK1 in human HeLa cells lysate at 10 uM pre incubated for 15 mins followed by ADP acyl phosphate probe addition and measured after 10 mins by LC-MS/MS analysis relative to control; conditions: 25 min, condition cancer
[11] = Inhibition of MSK1/2 in human HeLa cells lysate pre incubated for 15 mins followed by ATP acyl phosphate probe addition and measured after 10 mins by LC-MS/MS analysis; format: subcellular
[12] = target: T5, Mixed lineage kinase domain-like protein (Homo sapiens) (UniProt Q8NB16); assay: Inhibition of MLKL in human HeLa cells lysate at 50 uM pre incubated for 15 mins followed by ADP acyl phosphate probe addition and measured after 10 mins by LC-MS/MS analysis relative to control; format: subcellular; conditions: time 25.0 min
T5 sequence (whole entry): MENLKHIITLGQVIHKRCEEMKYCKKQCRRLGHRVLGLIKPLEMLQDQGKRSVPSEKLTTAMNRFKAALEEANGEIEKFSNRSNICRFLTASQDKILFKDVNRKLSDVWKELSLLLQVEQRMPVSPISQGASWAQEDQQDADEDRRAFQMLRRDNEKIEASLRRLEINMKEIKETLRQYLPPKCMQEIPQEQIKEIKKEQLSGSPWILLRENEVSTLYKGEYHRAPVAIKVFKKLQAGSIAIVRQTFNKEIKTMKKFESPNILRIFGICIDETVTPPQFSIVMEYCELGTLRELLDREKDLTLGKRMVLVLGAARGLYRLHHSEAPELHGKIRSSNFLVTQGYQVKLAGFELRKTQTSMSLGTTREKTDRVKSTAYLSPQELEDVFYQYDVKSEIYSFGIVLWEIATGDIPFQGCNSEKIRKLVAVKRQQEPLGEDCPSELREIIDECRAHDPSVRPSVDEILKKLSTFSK

T1 sequence (Q86UE8 whole entry, looked up): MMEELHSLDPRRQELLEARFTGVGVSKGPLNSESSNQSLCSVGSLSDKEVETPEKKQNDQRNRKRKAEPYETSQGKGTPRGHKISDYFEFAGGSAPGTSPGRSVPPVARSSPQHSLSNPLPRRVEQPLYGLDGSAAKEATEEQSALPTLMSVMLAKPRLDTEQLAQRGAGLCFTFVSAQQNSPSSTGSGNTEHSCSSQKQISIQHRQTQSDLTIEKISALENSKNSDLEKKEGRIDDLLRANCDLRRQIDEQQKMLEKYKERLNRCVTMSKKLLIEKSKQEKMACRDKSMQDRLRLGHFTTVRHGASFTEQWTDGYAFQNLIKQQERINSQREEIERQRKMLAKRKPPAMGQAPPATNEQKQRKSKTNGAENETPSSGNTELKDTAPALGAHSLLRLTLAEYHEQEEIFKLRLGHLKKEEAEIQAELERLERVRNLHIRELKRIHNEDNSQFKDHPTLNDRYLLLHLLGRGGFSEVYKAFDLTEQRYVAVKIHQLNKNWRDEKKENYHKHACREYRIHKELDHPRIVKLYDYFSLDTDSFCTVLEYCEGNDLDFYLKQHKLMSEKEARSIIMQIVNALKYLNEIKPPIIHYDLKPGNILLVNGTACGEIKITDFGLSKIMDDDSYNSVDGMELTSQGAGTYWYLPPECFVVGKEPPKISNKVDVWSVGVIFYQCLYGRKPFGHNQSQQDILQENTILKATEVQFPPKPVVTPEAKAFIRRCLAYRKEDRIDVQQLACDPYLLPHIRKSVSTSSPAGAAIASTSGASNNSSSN
Chain of Ribosomal protein S6 kinase alpha-1 (Q15418 whole entry, the tested form may be a part): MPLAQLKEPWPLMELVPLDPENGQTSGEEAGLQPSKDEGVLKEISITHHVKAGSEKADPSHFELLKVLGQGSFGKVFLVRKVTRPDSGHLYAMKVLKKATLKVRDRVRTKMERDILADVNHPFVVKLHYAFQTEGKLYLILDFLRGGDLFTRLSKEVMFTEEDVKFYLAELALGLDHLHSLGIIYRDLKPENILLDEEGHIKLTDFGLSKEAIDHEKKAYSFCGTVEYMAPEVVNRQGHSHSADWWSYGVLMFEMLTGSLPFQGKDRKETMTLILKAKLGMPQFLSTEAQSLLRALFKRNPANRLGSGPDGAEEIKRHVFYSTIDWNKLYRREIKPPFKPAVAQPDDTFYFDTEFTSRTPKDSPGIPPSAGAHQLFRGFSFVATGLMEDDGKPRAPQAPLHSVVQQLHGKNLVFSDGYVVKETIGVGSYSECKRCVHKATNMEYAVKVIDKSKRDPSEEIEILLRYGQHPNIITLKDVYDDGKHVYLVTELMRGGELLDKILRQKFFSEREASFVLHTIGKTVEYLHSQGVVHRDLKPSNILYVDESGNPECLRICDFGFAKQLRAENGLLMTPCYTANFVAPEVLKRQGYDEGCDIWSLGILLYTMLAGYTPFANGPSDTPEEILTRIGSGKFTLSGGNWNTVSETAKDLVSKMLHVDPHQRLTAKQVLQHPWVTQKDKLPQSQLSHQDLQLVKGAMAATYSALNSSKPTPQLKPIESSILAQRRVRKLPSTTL
Chain of Serine/threonine-protein kinase Nek8 (Homo sapiens) (Q86SG6 whole entry): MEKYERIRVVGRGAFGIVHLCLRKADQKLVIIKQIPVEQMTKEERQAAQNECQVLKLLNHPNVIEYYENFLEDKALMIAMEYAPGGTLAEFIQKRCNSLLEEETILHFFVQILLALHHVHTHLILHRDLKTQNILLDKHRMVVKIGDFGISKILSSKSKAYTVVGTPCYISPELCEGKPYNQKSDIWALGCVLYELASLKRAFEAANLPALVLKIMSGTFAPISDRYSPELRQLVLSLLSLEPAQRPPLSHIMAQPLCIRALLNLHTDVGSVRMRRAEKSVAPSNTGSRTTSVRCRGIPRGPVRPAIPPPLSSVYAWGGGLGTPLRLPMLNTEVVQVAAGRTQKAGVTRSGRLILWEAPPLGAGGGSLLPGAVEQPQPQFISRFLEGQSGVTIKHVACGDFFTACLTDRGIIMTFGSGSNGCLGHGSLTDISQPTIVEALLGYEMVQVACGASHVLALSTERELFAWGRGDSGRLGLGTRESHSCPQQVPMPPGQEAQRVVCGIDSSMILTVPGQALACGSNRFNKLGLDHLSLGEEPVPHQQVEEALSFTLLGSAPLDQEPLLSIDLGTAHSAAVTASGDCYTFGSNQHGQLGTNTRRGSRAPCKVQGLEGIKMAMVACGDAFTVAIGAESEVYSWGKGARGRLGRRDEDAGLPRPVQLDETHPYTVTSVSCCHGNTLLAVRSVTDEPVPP
Chain of SRSF protein kinase 1 (Q96SB4 whole entry): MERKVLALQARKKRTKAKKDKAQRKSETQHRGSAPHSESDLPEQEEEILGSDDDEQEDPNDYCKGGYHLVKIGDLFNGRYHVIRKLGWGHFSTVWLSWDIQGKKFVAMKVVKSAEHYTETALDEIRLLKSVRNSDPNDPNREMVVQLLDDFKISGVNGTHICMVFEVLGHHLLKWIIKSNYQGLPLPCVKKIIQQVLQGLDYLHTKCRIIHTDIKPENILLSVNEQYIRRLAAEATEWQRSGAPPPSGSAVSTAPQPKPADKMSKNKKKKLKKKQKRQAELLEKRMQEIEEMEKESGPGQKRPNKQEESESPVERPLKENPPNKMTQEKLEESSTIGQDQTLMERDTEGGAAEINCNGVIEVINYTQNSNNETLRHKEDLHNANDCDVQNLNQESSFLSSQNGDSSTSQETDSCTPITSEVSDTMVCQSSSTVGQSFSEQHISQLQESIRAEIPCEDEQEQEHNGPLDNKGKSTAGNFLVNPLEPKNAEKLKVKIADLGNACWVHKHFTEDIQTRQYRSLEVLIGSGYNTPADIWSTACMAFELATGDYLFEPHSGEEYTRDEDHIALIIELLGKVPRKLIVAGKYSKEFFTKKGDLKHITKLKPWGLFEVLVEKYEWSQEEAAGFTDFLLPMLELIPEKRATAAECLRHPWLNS

## CCOc1cc(N2CCC(O)CC2)ccc1Nc1ncc2c(n1)N(C)c1ccccc1C(=O)N2C
[1]
  inhibition: -2.4%
SRSF protein kinase 1
  inhibition: -7.5%
[2]
  inhibition: 23.1%
[3]
  concentration at 96 h: 9 µM
[4]
  inhibition: 0.4%
[5]
  inhibition: 63.8%
[6]
  inhibition: 12.7%
[7]
  IC50: > 50 µM
[8]
  inhibition: -0.8%
[9]
  inhibition: 9.9%
[10]
  inhibition at 10 µM: 7.9%
[11]
  IC50: > 50 µM
[12]
  inhibition: -6.7%
